From patent publication US20250360167A1 (Keryx Biopharmaceuticals, Inc., priority 2013, published 2025)

What was measured:
serum calcium = test: Phase 3 trial (Example 1): serum calcium; assay type: in vivo, human
Description: Serum phosphorus and calcium were performed at Screening (Visit 0); weekly during the Washout Period after Visit 1 (Week −2); at Visit 4 (Randomization Visit); at Visits 5 (Week 1), 6 (Week 2), 7 (Week 4), 8 (Week 6), 9 (Week 8), 10 (Week 10), 11 (Week 12), 12 (Week 16), 13 (Week 20), 14 (Week 24), 15 (Week 28), 16 (Week 32), 17 (Week 36), 18 (Week 40), 19 (Week 44), 20 (Week 48), and 21 (Week 52) of the 52-week Safety Assessment Period; and at Visits 22 (Week 53), 23 (Week 54), 24 (Week 55) and 25 (Week 56) of the Efficacy Assessment Period.
These variables will be analyzed using LOCF methodology. ANCOVA will be employed. The model will include treatment (fixed effect), and Visit-4 baseline (covariate). An analysis using MMRM method will be conducted as a sensitivity analysis. The least square mean estimates of the treatment effects as well as the 2-sided 95% confidence intervals (CI) of the treatment effects will be derived.
• 1. Change in serum calcium concentration at Weeks 12, 24, 36, 48, and 52 as compared to baseline (Visit 4). This variable will be analyzed using LOCF methodology. ANCOVA will be employed. The model will include treatment (fixed effect), and baseline (covariate). • 2. Change in ferritin, and TSAT at Weeks 12, 24, 36 and 48 as compared to baseline (Visit 4). This variable will be analyzed using LOCF methodology. ANCOVA will be employed. The model will include treatment (fixed effect), and baseline (covariate). • 3. Change in serum iron and TIBC at Weeks 12, 24, 36, 48, and 52 as compared to baseline (Visit 4). This variable will be analyzed using LOCF methodology. ANCOVA will be employed. The model will include treatment (fixed effect), and baseline (covariate). • 4. Change in Ca x P product at Weeks 12, 24, 36, 48, and 52 as compared to baseline (Visit 4). This variable will be analyzed using LOCF methodology. ANCOVA will be employed. The model will include treatment (fixed effect), and baseline (covariate). • 5. Change in iPTH at Weeks 12, 36, 52, and 56 as compared to baseline (Visit 4). This variable will be analyzed using LOCF methodology. ANCOVA will be employed. The model will include treatment (fixed effect), and baseline (covariate). • 6. Change in serum […], vitamin A, vitamin B-12, vitamin E, vitamin K and folic acid at Weeks 12, 36, and 52 as compared to baseline (Visit 4). This variable will be analyzed using LOCF methodology. ANCOVA will be employed. The model will include treatment (fixed effect), and baseline (covariate). • 7. Change in serum bicarbonate concentration at Weeks 12, 36, and 52 as compared to baseline (Visit 4). This variable will be analyzed using LOCF methodology. ANCOVA will be employed. The model will include treatment (fixed effect), and baseline (covariate). • 8. Change in IV iron intake at Weeks 12, 24, 36, 48, and 52 as compared to baseline (Visit 4). This variable will be analyzed using LOCF methodology. ANCOVA will be employed. The model will include treatment (fixed effect), and baseline (covariate). • 9. Change in the use of EPO (ESA) administered at Weeks 12, 24, 36, 48, and 52 as compared to baseline (Visit 4). This variable will be analyzed using LOCF methodology. ANCOVA will be employed. The model will include treatment (fixed effect), and baseline (covariate). • 10. Change in the use of Vitamin D supplementation (and its analogs) and Sensipar (cinacalcet) at Weeks 12, 24, 36, 48, and 52 as compared to baseline (Visit 4). This variable will be analyzed using LOCF methodology. ANCOVA will be employed. The model will include treatment (fixed effect), and baseline (covariate). • 11. Change in LDL, HDL, and triglycerides at Weeks 12, 36, and 52 as compared to baseline (Visit 4). This variable will be analyzed using LOCF methodology. ANCOVA will be employed. The model will include treatment (fixed effect), and baseline (covariate).

C-Terminal FGF-23 = test: Phase 2 trial (Example 2): C-terminal FGF-23; assay type: in vivo, human; conditions: n = 63
Text: The key secondary endpoints of the study were the mean changes in ferritin, hemoglobin and FGF-23 from baseline to the end of the 12-week treatment period versus placebo in the ITT group.

[1] = Dissolution testing, USP <711> vessels, Apparatus II; assay type: physicochemical; conditions: relative to standard = 100
serum phosphorus = test: Phase 2 trial in anemic Stage III to V CKD subjects not on dialysis (Example 2): serum phosphorus; assay type: in vivo, human
Description: This trial is a three-period clinical trial consisting of a screening period, a two-week washout period, and a 12-week treatment period.
If a subject has a serum phosphorus ≥6.0 mg/dL for at least two visits in a row during the 12-week treatment period, the subject is considered a treatment failure, stops study drug and exits the study.
The target level for serum phosphorus is 3.0 to 4.0 mg/dL. Subjects are titrated as follows: • 1. If serum phosphorus is at target (3.0 to 4.0 mg/dL), no adjustment in dose is required. • 2.
(§1) Change in serum phosphorus, ferritin and TSAT levels from baseline to end of treatment after 12 weeks are the primary endpoints.
(§2) The co-primary efficacy endpoints of this trial were the mean changes in serum phosphorus and TSAT from baseline to the end of the 12-week treatment period versus placebo in the ITT group.

TSAT = test: Phase 2 trial (Example 2): TSAT; assay type: in vivo, human
Text: as §1, §2

[2] = Week 12, last observation carried forward, ITT group, n = 72

## iron (+3), x (1, 2, 3-propanetricarboxylic acid, 2-hydroxy-), y (H2O) [KRX-0502]
Serum calcium; Baseline, Table 12
  Calcium, Mean: 8.843 mg/dL
  Calcium, Median: 8.900 mg/dL
Serum calcium; Table 12
  Calcium, Week 12 Change from Baseline, Mean: 0.245 mg/dL
  Calcium, Week 12 Change from Baseline, Median: 0.200 mg/dL
Serum calcium; Week 12, ANCOVA, Table 12
  Calcium, LS Mean: 9.11 mg/dL
Serum calcium; Week 12, Table 12
  Calcium, Mean: 9.089 mg/dL
  Calcium, Median: 9.100 mg/dL
Serum calcium; Week 12, control = sevelamer carbonate as a single agent
  Calcium, Treatment Differences, LS Mean (KRX-0502) − LS Mean (Control): -0.04 mg/dL
C-Terminal FGF-23; Baseline
  Mean C-Terminal FGF-23, Baseline: 468 pg/mL
C-Terminal FGF-23; Week 12, last observation carried forward
  Mean C-Terminal FGF-23, End of Treatment (Week 12): 316 pg/mL
[1]; 5 minutes
  Dissolution testing, percentage dissolved: ≥ 91%
[1]; 15 minutes
  Dissolution testing, percentage dissolved: ≥ 96%
[1]; 30 minutes
  Dissolution testing, percentage dissolved: ≥ 96%
[1]; 60 minutes
  Dissolution testing, percentage dissolved: ≥ 95%
Serum phosphorus; Baseline, ITT group, n = 72
  Mean Serum Phosphorus, Baseline: 4.5 mg/dL
Serum phosphorus; [2]
  Mean Serum Phosphorus, End of Treatment (Week 12): 3.9 mg/dL
Serum phosphorus; mean changes baseline to end of 12-week treatment vs placebo, ITT, 141 subjects
  co-primary (serum phosphorus, TSAT) and key secondary endpoints (ferritin, hemoglobin, FGF-23): met both co-primary and all key secondary endpoints with highly statistically significant results
Serum phosphorus; sample size assumption
  ending serum phosphorus at Visit 11 (Week 12): approximately 4.3 mg/dL
TSAT; Baseline, ITT group, n = 72
  TSAT, Baseline: 22%
TSAT; [2]
  TSAT, End of Treatment (Week 12): 32%
TSAT; sample size assumption
  ending TSAT level at Visit 11 (Week 12): approximately 25%
